One data set concerns the target hERG channel (IKr) (Homo sapiens (Human), UniProt Q12809). Put plainly: hERG test, whole cell patch clamp IKr in CHO cells (Test Example 3). The format is cell-based. Particulars: pH 7.4, at of test compound (so in the source), CHO cells expressing hERG channel, read-out: % inhibition of tail peak current (IKr). From the text:
For the purpose of assessing risk of an electrocardiogram QT interval prolongation of the compound of the present invention, effects of the compound of the present invention on delayed rectifier K^+ current (IKr), which plays an important role in the ventricular repolarization process, was studied using CHO cells expressing human ether-a-go-go related gene (hERG) channel.
After a cell was retained at a membrane potential of −80 mV by whole cell patch clamp method using an automated patch clamp system (QPatch; Sophion Bioscience A/S) and gave a leak potential of −50 mV, IKr induced by depolarization pulse stimulation at +20 mV for 2 seconds, and further, repolarization pulse stimulation at −50 mV for 2 seconds, was recorded. A vehicle, which is the 0.1-0.3% dimethyle sulfoxide solution in extracellular solution (NaCl: 145 mmol/L, KCl: 4 mmol/L, CaCl2: 2 mmol/L, MgCl2: 1 mmol/L, glucose: 10 mmol/L, HEPES (4-(2-hydroxyethyl)-1-piperazineethanesulfonic acid): 10 mmol/L, pH7.4), or the compound of the present invention had been dissolved at an objective concentration in the extracellular solution is applied to the cell at room temperature for 7 minutes or more. From the recording IKr, an absolute value of the tail peak current was measured based on the current value at the resting membrane potential using analysis software (QPatch assay software; Sophion Bioscience A/S). Further, the % inhibition of tail peak current for the compound of the present invention relative to the tail peak current after application of the vehicle is calculated to assess influence of the compound of the present invention on IKr.
(Result) % inhibition was shown at […] of test compound.

In the next data set the target is human TrkA (Homo sapiens (Human), UniProt P04629). Put plainly: Human TrkA inhibition assay (Test Example 2). The format is biochemical. The method in brief:
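Mobility-shift readout of phosphorylated versus unphosphorylated fluorescent peptide gave conversion ratio, normalized to DMSO and no-enzyme wells; IC50 by logistic fit of 10- or 15-point 3-fold dilutions. Conditions: 1 nmol/L enzyme, 15 min compound preincubation, then 500 μmol/L ATP plus 1.5 μmol/L peptide, 120 min, 37 °C.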

A short description of data set [1]: Clearance test, intravenous administration in SD rats (Test Example 7). Type of data set: in vivo. Particulars: rat, plasma, intravenous administration 0.5 mg/kg or 1 μmol/kg, read-out: Total Clearance (CLtot). As for the experimental part: Materials and Methods for Experiments • (1) Experimental animals: SD rats were used. • (2) Rearing condition: SD rats were allowed free access to solid feed and sterilized tap water. • (3) Setting of dosage and grouping: Intravenous administration was performed with the predetermined dosage. Grouping was set as below. (Dosage is changed per compound) Intravenous administration 0.5 mg/kg or 1 μmol/kg (n=2) • (4) Preparation of administration solutions: Administration was performed after solubilization by using dimethylacetamide/propylene glycol=1/1 or dimethyl sulfoxide/propylene glycol=1/1 as the solvent. • (5) Routes of administration: Intravenous administration was performed from caudal vein by syringes with needle. • (6) Evaluation items: Blood was collected serially and concentration of a compound of the present invention in plasma was measured by LC/MS/MS. • (7) Statistical analysis: About transition of concentration of a compound of the present invention in plasma, Total Clearance (CLtot) of a compound of the present invention was calculated by non-linear least-squares method program, WinNonlin (a registered trademark).

[2] abbreviates: Table 152, human TrkA inhibition, read-out: IC50_nM.
Where [3] appears, read: human TrkA 1 nmol/L, ATP 500 μmol/L, 120 min at 37° C., read-out: IC50 values (TrkA phosphorylation inhibition).

Like-named read-outs stand apart in the source and are kept apart here. Where only a bound is given, the exact number is not on record here.

hERG channel (IKr), sequence (Q12809 whole entry): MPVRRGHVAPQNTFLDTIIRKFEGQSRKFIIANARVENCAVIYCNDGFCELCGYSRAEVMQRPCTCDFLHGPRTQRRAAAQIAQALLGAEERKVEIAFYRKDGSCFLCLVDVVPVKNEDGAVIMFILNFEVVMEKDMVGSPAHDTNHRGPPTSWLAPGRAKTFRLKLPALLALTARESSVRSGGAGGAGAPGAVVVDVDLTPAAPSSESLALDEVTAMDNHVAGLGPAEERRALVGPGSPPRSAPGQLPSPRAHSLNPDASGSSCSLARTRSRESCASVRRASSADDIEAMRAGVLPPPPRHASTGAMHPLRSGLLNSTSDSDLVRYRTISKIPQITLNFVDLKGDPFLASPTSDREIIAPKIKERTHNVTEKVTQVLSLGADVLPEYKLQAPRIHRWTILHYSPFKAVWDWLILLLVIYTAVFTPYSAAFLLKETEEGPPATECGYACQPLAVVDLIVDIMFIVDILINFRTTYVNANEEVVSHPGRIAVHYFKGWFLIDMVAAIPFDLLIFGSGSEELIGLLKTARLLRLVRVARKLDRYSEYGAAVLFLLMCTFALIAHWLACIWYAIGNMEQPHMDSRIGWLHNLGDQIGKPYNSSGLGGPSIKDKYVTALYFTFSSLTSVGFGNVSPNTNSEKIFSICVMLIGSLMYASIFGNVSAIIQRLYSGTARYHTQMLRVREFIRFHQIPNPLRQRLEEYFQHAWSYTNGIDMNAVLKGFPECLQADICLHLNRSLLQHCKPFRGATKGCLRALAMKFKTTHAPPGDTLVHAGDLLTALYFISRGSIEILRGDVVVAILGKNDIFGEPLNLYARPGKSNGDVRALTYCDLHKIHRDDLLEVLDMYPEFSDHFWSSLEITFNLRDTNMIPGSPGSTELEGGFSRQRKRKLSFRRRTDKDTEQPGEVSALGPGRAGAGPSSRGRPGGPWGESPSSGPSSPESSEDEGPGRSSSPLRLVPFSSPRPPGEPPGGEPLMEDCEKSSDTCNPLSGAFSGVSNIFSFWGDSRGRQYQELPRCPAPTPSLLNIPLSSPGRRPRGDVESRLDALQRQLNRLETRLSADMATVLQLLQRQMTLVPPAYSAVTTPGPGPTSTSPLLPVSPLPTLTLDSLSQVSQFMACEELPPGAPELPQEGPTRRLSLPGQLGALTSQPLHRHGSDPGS
human TrkA, sequence (P04629 440-796): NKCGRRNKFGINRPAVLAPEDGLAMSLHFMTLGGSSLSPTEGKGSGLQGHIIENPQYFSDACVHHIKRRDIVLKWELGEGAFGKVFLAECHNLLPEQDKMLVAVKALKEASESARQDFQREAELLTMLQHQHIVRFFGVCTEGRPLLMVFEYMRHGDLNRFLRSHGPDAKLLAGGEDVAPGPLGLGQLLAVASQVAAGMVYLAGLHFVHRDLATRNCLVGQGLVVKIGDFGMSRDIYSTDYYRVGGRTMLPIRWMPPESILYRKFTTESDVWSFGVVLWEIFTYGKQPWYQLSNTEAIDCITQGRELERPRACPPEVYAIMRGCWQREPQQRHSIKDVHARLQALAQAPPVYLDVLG

Consider `COCCN1C[C@@H](NC(=O)Nc2c(C)c(-c3cnn(C)c3)nn2-c2ccccc2)[C@H](c2ccccc2)O1` (racemic) [Compound I-4], for which the inhibition at 5 mol/L on hERG channel (IKr) stood at 14.1%. Moreover, at human TrkA (setting [2]), the IC50 was below 100 nM.
On to `COCCN1C[C@@H](NC(=O)Nc2c(C)c(-c3cnc(OC)nc3)nn2-c2ccccc2)[C@H](c2cnc(F)c(F)c2)O1` (racemic) [Compound I-57], for which, on human TrkA (setting [3]), the IC50 turned out to be 2.2 nM. Besides, in data set [1], the clearance was 7.93 mL/min/kg.
For `COCCN1C[C@@H](NC(=O)Nc2c(C)c(-c3cnc4c(c3)nnn4C)nn2-c2ccccc2)[C@H](c2ccnc(F)c2)O1` (racemic) [Compound I-90], the IC50 at human TrkA (Table 153, human TrkA inhibition, read-out: IC50) was below 100 nM. In data set [1], the clearance was found to be 6.35 mL/min/kg.
For the compound `COCCC1C[C@@H](NC(=O)Nc2c(C)c(-c3cnn(C)c3)nn2-c2ccccc2)[C@H](c2ccccc2)O1` (some centres unmarked) [Compound I-6], the inhibition at 5 mol/L on hERG channel (IKr) was 8.9%. For the same compound, the IC50 at human TrkA (setting [2]) is below 100 nM.
`COCC[C@@H]1O[C@@H](NC(=O)Nc2c(C)c(-c3cnn(C)c3)nn2-c2ccccc2)[C@H](c2ccccc2)O1` [Compound I-7]: the inhibition at 5 mol/L at hERG channel (IKr) is 4.2%. Further, on human TrkA (setting [3]), the IC50 turned out to be 6.1 nM.
Turning to `COCCC1C[C@@H](NC(=O)Nc2c(C)c(-c3cnc(C)nc3)nn2-c2ccccc2)[C@H](c2ccccc2)O1` (some centres unmarked) [Compound I-12], the inhibition at 5 mol/L on hERG channel (IKr) worked out at 17.6%. The IC50 at human TrkA (setting [2]) was below 100 nM. Further, in data set [1], the clearance turned out to be 13.6 mL/min/kg.
Regarding `CCN1CCC(NC(=O)c2ccc(-c3nn(-c4ccccc4)c(NC(=O)N[C@@H]4CC(CCOC)O[C@H]4c4ccccc4)c3C)cc2)CC1` (some centres unmarked) [Compound I-19], at human TrkA (setting [2]), the IC50 is below 100 nM. Besides, the clearance in data set [1] is 15.6 mL/min/kg.
As to `COCC[C@@H]1C[C@@H](NC(=O)Nc2c(C)c(-c3cnc4c(c3)nnn4C)nn2-c2ccccc2)[C@H](c2ccnc(F)c2)O1` [Compound I-275], the IC50 on human TrkA (setting [3]) was determined as 3 nM. Also, the clearance in data set [1] worked out at 3.73 mL/min/kg.

The values are drawn from patent publication US10640495B2, “Heterocycle derivatives having TrkA inhibitory activity” (Shionogi & Co., Ltd., priority 2015, dated 2020).
